# From patent US12559461B2, “Antibiotic adjuvant compounds” (UNIVERSITY OF NOTRE DAME DU LAC, priority 2020, dated 2026)
# Structures can show the parent of a compound that is named as a salt. Where two headings read alike, the source gives them in different places.
# Legend:
# [1] = system: AB5075; experiment: Broth microdilution MIC of compound alone (standalone toxicity); format: cell-based, Acinetobacter baumannii
# Description: (§1) Bacterial Strains and Antimicrobial Agents. Acinetobacter baumannii clinical isolate 5075 was obtained from Dr. Colin Manoil at the University of Washington. Colonies were grown on lysogeny broth (LB) agar. Cation-adjusted Mueller-Hinton Broth (CAMHB) (catalog number 212322) were purchased from BD Diagnostics. LB broth was purchased from Fisher Scientific (catalog number BP9722-2). […] Colistin sulfate salt (catalog number C4461) was purchased from Sigma Aldrich. All assays were completed in duplicate and repeated at least two separate times. All compounds were dissolved as their HCl salts in molecular biology grade DMSO as 10 or 100 mM stock solutions and stored at −20° C. Colistin was dissolved in sterile water while clarithromycin was dissolved in molecular biology grade DMSO.
# Broth microdilution method for MIC determination. Day cultures (6 h) of each bacterial strain in cation adjusted Mueller Hinton II broth (CAMHB, Fisher Scientific U.S.) were subcultured to 5×10^5 CFU/mL in CAMHB. Aliquots (1 mL) were placed in culture tubes and compound was added from 10 mM stock samples in DMSO, such that compound concentration equaled highest concentration tested (200 μM). Samples were then aliquoted (200 μL) into the first wells of a 96-well plate, with all remaining wells being filled with 100 μL of initial bacterial subculture. Row one wells were mixed five times, before 100 μL was transferred to row two. Row two was then mixed five times, and 100 μL was transferred to row three. This process was repeated until the final row had been mixed; this served to serially dilute the compound. Plates were then covered with GLAD Press n'Seal and incubated under stationary conditions at 37° C. for 16 h. MIC values were then recorded as the lowest concentration at which no bacterial growth was observed.
# [2] = system: AB5075; experiment: Broth microdilution clarithromycin (CLR) potentiation and dose-response of adjuvant; format: cell-based, Acinetobacter baumannii; conditions: for adjuvant activity (CLR potentiation), rank by amide linker position: dosed at 30 μM
# Description: as §1
# Broth microdilution method for antibiotic potentiation. Day cultures (6 h) of bacteria in CAMHB were subcultured to 5×10^5 CFU/mL in CAMHB. Aliquots (4 mL) were placed in culture tubes and dosed with compound from 10 mM stock samples to give the desired concentration of the compound to be tested against the particular bacterial strain; this insured non-toxic DMSO concentrations ≤0.3% in each well. 1 mL of the resulting solution was placed in a separate culture and dosed with antibiotic at the highest concentration to be tested. Bacteria treated with antibiotic alone served as the control. Row one of a 96-well plate was filled with 200 μL of the antibiotic/2-AI solution, and rows 2-12 were filled with 100 μL each of the remaining 4 mL of bacterial subculture containing adjuvant at the desired concentration, except for the control lane which contained only bacterial subculture. Row one was then mixed five times, and 100 μL was transferred to row two, which was then mixed five times before being transferred to row three. This process was repeated until all rows had been mixed, except for row twelve which would have only 2-AI to serve as a control to monitor potential toxicity. The 96-well plate was then covered in Glad Press n'Seal and incubated under stationary conditions at 37° C. for 16 h. MIC values were determined as the lowest concentration at which no bacterial growth was observed, and fold reductions were determined by comparison to antibiotic control lane.
# Dose-response of Adjuvant Assay. The procedure for ‘broth microdilution method for antibiotic potentiation’ was followed using 4 mL aliquots of adjuvant at various concentrations: 0, 5, 7.5, 10, 15, 20, 25, and 30 μM.
structure (smiles),measurement,setting,value
"Nc1nc(-c2ccc(NC(=O)c3ccccc3)cc2)c[nH]1 [Compound 4a, N-(4-(2-amino-1H-imidazol-4-yl)phenyl)benzamide hydrochloride]",MIC,[1]; Acinetobacter baumannii,> 200 µM
Cl.Nc1nc(-c2ccc(NC(=O)c3cccc(I)c3)cc2)c[nH]1 [Compound 4b],MIC,[1],>200 µM
same,CLR MIC,[2]; compound tested at 30 μM,32 µg/mL
Cl.Nc1nc(-c2ccc(NC(=O)c3cccc(Br)c3)cc2)c[nH]1 [Compound 4c],MIC,[1],>200 µM
same,CLR MIC,[2]; compound tested at 30 μM,32 µg/mL
"Cl.Nc1nc(-c2ccc(NC(=O)c3cccc(Cl)c3)cc2)c[nH]1 [Compound 4d, 4-(2-Amino-3H-imidazol-4-yl)phenyl]-3-chlorobenzamide hydrochloride]",MIC,[1]; Acinetobacter baumannii,200 µM
Cl.Nc1nc(-c2ccc(NC(=O)c3cccc(Cl)c3)cc2)c[nH]1 [Compound 4d],CLR MIC,[2]; compound tested at 10 μM,16 µg/mL
same,CLR MIC,[2]; compound tested at 20 μM,4 µg/mL
Cl.Nc1nc(-c2ccc(NC(=O)c3cccc(F)c3)cc2)c[nH]1 [Compound 4e],MIC,[1],>200 µM
same,CLR MIC,[2]; compound tested at 30 μM,16 µg/mL
Cl.Nc1nc(-c2ccc(NC(=O)c3ccc(C(F)(F)F)cc3)cc2)c[nH]1 [Compound 4f],MIC,[1],>200 µM
same,CLR MIC,[2]; compound tested at 30 μM,32 µg/mL
Cl.Nc1nc(-c2ccc(NC(=O)c3ccc(I)cc3)cc2)c[nH]1 [Compound 4g],MIC,[1],>200 µM
same,CLR MIC,[2]; compound tested at 30 μM,16 µg/mL
"Nc1nc(-c2ccc(NC(=O)c3ccc(Br)cc3)cc2)c[nH]1 [Compound 4h, N-(4-(2-amino-1H-imidazol-4-yl)phenyl)-4-bromobenzamide hydrochloride]",MIC,[1]; Acinetobacter baumannii,> 200 µM
"Cl.Nc1nc(-c2ccc(NC(=O)c3ccc(Cl)cc3)cc2)c[nH]1 [Compound 4i, 4-(2-Amino-3H-imidazol-4-yl)phenyl]-4-chlorobenzamide hydrochloride]",MIC,[1]; Acinetobacter baumannii,> 200 µM
Cl.Nc1nc(-c2ccc(NC(=O)c3ccc(Cl)cc3)cc2)c[nH]1 [Compound 4i],CLR MIC,[2]; compound tested at 10 μM,16 µg/mL
same,CLR MIC,[2]; compound tested at 20 μM,4 µg/mL
"Cl.Nc1nc(-c2ccc(NC(=O)c3ccc(F)cc3)cc2)c[nH]1 [Compound 4j, N-(4-(2-amino-1H-imidazol-4-yl)phenyl)-4-fluorobenzamide hydrochloride]",MIC,[1]; Acinetobacter baumannii,> 200 µM
same,CLR MIC,[2]; compound tested at 30 μM,8 µg/mL
"Cl.Nc1nc(-c2ccc(NC(=O)c3cc(C(F)(F)F)cc(C(F)(F)F)c3)cc2)c[nH]1 [Compound 4l, 4-(2-Amino-3H-imidazol-4-yl)phenyl]-3,5-(bistrifluoromethyl)benzamide hydrochloride]",MIC,[1]; Acinetobacter baumannii,50 µM
Cl.Nc1nc(-c2ccc(NC(=O)c3cc(C(F)(F)F)cc(C(F)(F)F)c3)cc2)c[nH]1 [Compound 4l],CLR MIC,[2]; compound tested at 15 μM,8 µg/mL
"Cc1cc(C)cc(C(=O)Nc2ccc(-c3c[nH]c(N)n3)cc2)c1.Cl [Compound 4m, N-(4-(2-amino-1H-imidazol-4-yl)phenyl)-3,5-dimethylbenzamide hydrochloride]",MIC,[1]; Acinetobacter baumannii,> 200 µM
same,CLR MIC,[2]; compound tested at 30 μM,2 µg/mL
"Cl.Nc1nc(-c2ccc(NC(=O)c3ccc(C(F)(F)F)c(F)c3)cc2)c[nH]1 [Compound 4p, N-(4-(2-amino-1H-imidazol-4-yl)phenyl)-3-fluoro-4-(trifluoromethyl)benzamide hydrochloride]",MIC,[1]; Acinetobacter baumannii,50 µM
same,CLR MIC,[2]; compound tested at 5 μM,16 µg/mL
same,CLR MIC,[2]; compound tested at 7.5 μM,4 µg/mL
same,CLR MIC,[2]; compound tested at 10 μM,1 µg/mL
same,Fold Reduction of CLR MIC,[2]; compound tested at 10 μM,32 fold
same,CLR MIC,[2]; compound tested at 15 μM,0.5 µg/mL
"Cl.Nc1nc(-c2ccc(NC(=O)c3cccc(Cl)c3Cl)cc2)c[nH]1 [Compound 4q, N-(4-(2-amino-1H-imidazol-4-yl)phenyl)-2,3-dichlorobenzamide hydrochloride]",MIC,[1]; Acinetobacter baumannii,> 200 µM
same,CLR MIC,[2]; compound tested at 30 μM,8 µg/mL
same,Fold Reduction of CLR MIC,[2]; compound tested at 30 μM,four-fold
Cl.Nc1nc(-c2ccc(NC(=O)c3ccc(Cl)cc3Cl)cc2)c[nH]1 [Compound 4t],MIC,[1],>200 µM
same,CLR MIC,[2]; compound tested at 30 μM,4 µg/mL
same,Fold Reduction of CLR MIC,[2]; compound tested at 30 μM,eight-fold
Cl.Nc1nc(-c2ccc(NC(=O)c3ccc(Br)cc3F)cc2)c[nH]1 [Compound 4u],MIC,[1],>200 µM
same,CLR MIC,[2]; compound tested at 10 μM,32 µg/mL
same,CLR MIC,[2]; compound tested at 20 μM,16 µg/mL
same,CLR MIC,[2]; compound tested at 30 μM,2 µg/mL
Cl.Nc1nc(-c2ccc(NC(=O)c3cc(I)c(I)c(I)c3)cc2)c[nH]1 [Compound 4w],MIC,[1],>200 µM
same,CLR MIC,[2]; compound tested at 30 μM,32 µg/mL
"Cl.Nc1nc(-c2ccc(NC(=O)c3c(F)c(F)c(F)c(F)c3F)cc2)c[nH]1 [Compound 4x, N-(4-(2-amino-1H-imidazol-4-yl)phenyl)-2,3,4,5,6-pentafluorobenzamide hydrochloride]",MIC,[1]; Acinetobacter baumannii,> 200 µM
same,CLR MIC,[2]; compound tested at 30 μM,4 µg/mL
"Cl.Nc1nc(-c2ccc(NC(=O)c3cc(Cl)c(Br)c(Cl)c3)cc2)c[nH]1 [Compound 4y, N-(4-(2-amino-1H-imidazol-4-yl)phenyl)-4-bromo-3,5-dichlorobenzamide hydrochloride]",MIC,[1]; Acinetobacter baumannii,200 µM
same,CLR MIC,[2]; compound tested at 7.5 μM,8 µg/mL
same,CLR MIC,[2]; compound tested at 10 μM,0.25 µg/mL
same,Fold Reduction of CLR MIC,[2]; compound tested at 10 μM,128 fold
same,CLR MIC,[2]; compound tested at 20 μM,0.25 µg/mL
"COc1cc(-c2c[nH]c(N)n2)ccc1NC(=O)c1cc(Cl)cc(Cl)c1.Cl [Compound 6a, N-(4-(2-amino-1H-imidazol-4-yl)-2-methoxyphenyl)-3,5-dichlorobenzamide hydrochloride]",MIC,[1]; Acinetobacter baumannii,100 µM
same,CLR MIC,[2]; compound tested at 10 μM,16 µg/mL
same,CLR MIC,[2]; compound tested at 20 μM,4 µg/mL
same,Fold Reduction of CLR MIC,[2]; compound tested at 20 μM,8 fold
same,CLR MIC,[2]; compound tested at 30 μM,0.5 µg/mL
same,Fold Reduction of CLR MIC,[2]; compound tested at 30 μM,64 fold
"Cc1cc(NC(=O)c2cc(Cl)cc(Cl)c2)ccc1-c1c[nH]c(N)n1.Cl [Compound 6b, N-(4-(2-amino-1H-imidazol-4-yl)-3-methylphenyl)-3,5-dichlorobenzamide hydrochloride]",MIC,[1]; Acinetobacter baumannii,> 200 µM
same,CLR MIC,[2]; compound tested at 10 μM,8 µg/mL
same,CLR MIC,[2]; compound tested at 20 μM,0.5 µg/mL
same,Fold Reduction of CLR MIC,[2]; compound tested at 20 μM,64 fold
same,CLR MIC,[2]; compound tested at 30 μM,0.5 µg/mL
same,Fold Reduction of CLR MIC,[2]; compound tested at 30 μM,64 fold
"Cc1cc(-c2c[nH]c(N)n2)ccc1NC(=O)c1cc(Cl)cc(Cl)c1.Cl [Compound 10a, N-(4-(2-amino-1H-imidazol-4-yl)-2-methylphenyl)-3,5-dichlorobenzamide hydrochloride]",MIC,[1]; Acinetobacter baumannii,> 200 µM
same,CLR MIC,[2]; compound tested at 10 μM,16 µg/mL
same,CLR MIC,[2]; compound tested at 20 μM,1 µg/mL
same,Fold Reduction of CLR MIC,[2]; compound tested at 20 μM,32 fold
same,CLR MIC,[2]; compound tested at 30 μM,0.5 µg/mL
same,Fold Reduction of CLR MIC,[2]; compound tested at 30 μM,64 fold
"Cl.Nc1nc(-c2ccc(NC(=O)c3cc(Cl)cc(Cl)c3)c(Cl)c2)c[nH]1 [Compound 10b, N-(4-(2-amino-1H-imidazol-4-yl)-2-chlorophenyl)-3,5-dichlorobenzamide hydrochloride]",MIC,[1]; Acinetobacter baumannii,> 200 µM
same,CLR MIC,[2]; compound tested at 30 μM,16 µg/mL
"Cl.Nc1nc(-c2ccc(NC(=O)c3cc(Cl)cc(Cl)c3)c(F)c2)c[nH]1 [Compound 10c, N-(4-(2-amino-1H-imidazol-4-yl)-2-fluorophenyl)-3,5-dichlorobenzamide hydrochloride]",MIC,[1]; Acinetobacter baumannii,> 200 µM
same,CLR MIC,[2]; compound tested at 30 μM,8 µg/mL
"Cl.Nc1nc(-c2ccc(NC(=O)c3cc(Cl)cc(Cl)c3)cc2F)c[nH]1 [Compound 10d, N-(4-(2-amino-1H-imidazol-4-yl)-3-fluorophenyl)-3,5-dichlorobenzamide hydrochloride]",MIC,[1]; Acinetobacter baumannii,> 200 µM
same,CLR MIC,[2]; compound tested at 5 μM,8 µg/mL
same,Fold Reduction of CLR MIC,[2]; compound tested at 5 μM,4 fold
same,CLR MIC,[2]; compound tested at 7.5 μM,4 µg/mL
same,CLR MIC,[2]; compound tested at 10 μM,0.5 µg/mL
same,Fold Reduction of CLR MIC,[2]; compound tested at 10 μM,64 fold
same,CLR MIC,[2]; compound tested at 20 μM,0.25 µg/mL
same,Fold Reduction of CLR MIC,[2]; compound tested at 20 μM,128 fold
same,CLR MIC,"[2]; compound tested at 30 μM, hydrochloride",0.25 µg/mL
"Cl.Nc1nc(-c2c(F)cc(NC(=O)c3cc(Cl)cc(Cl)c3)cc2F)c[nH]1 [Compound 13, N-(4-(2-amino-1H-imidazol-4-yl)-3,5-difluorophenyl)-3,5-dichlorobenzamide hydrochloride]",Fold Reduction of CLR MIC,[2]; compound tested at 10 μM,two-fold
same,CLR MIC,[2]; compound tested at 20 μM,8 µg/mL
same,CLR MIC,[2]; compound tested at 30 μM,4 µg/mL
Nc1nc(-c2cccc(NC(=O)c3cc(F)cc(F)c3)c2)c[nH]1 [Compound 18],"adjuvant activity (CLR potentiation), rank by amide linker position",[2],4k (highest adjuvant activity) >meta amide linker 18>ortho amide linker 19
Nc1nc(-c2ccccc2NC(=O)c2cc(F)cc(F)c2)c[nH]1 [Compound 19],"adjuvant activity (CLR potentiation), rank by amide linker position",[2],lowest adjuvant activity
